Test results: patent US20130123323A1, “FUNGICIDAL PYRAZOLES” (E I DU PONT DE NEMOURS AND COMPANY, priority 2010, published 2013)

Assays:
Format in all cases: in vivo
[1] = test system: Puccinia recondita f. sp. tritici; assay: Test E1: wheat leaf rust, wheat seedlings sprayed after inoculation; details: wheat seedlings inoculated, 24 h + 2 days at 20° C., then sprayed to run-off; visual rating 4 days later; 100 = 100% disease control; triplicate averaged
Procedure: (§1) General protocol for preparing test suspensions for Tests A-F: the test compounds were first dissolved in acetone in an amount equal to 3% of the final volume and then suspended at the desired concentration (in ppm) in acetone and purified water (50/50 mix) containing 250 ppm of the surfactant Trem® 014 (polyhydric alcohol esters). The resulting test suspensions were then used in Tests A-F. Each test was conducted in triplicate, and the results were averaged. Spraying a 200 ppm test suspension to the point of run-off on the test plants was the equivalent of a rate of 800 g/ha. Wheat seedlings were inoculated with a spore suspension of Puccinia recondita f. sp. tritici (the causal agent of wheat leaf rust) and incubated in a saturated atmosphere at 20° C. for 24 h, and then moved to a growth chamber at 20° C. for 2 days. At the end of this time the test suspension was sprayed to the point of run-off on the wheat seedlings, and then the seedlings were moved to a growth chamber at 20° C. for 4 days, after which time visual disease ratings were made. Results for Tests A-F are given in Table A. In the Table, a rating of 100 indicates 100% disease control and a rating of 0 indicates no disease control (relative to the controls). A dash (-) indicates no test results.

Botrytis cinerea = assay: Test A: tomato botrytis, test suspension sprayed on tomato seedlings the day before inoculation; details: sprayed to run-off, inoculated following day, visual rating after 48 h at 20° C. + 3 days at 24° C., 100 = 100% disease control, 0 = no control, triplicate averaged
Procedure: (§2) General protocol for preparing test suspensions for Tests A-F: the test compounds were first dissolved in acetone in an amount equal to 3% of the final volume and then suspended at the desired concentration (in ppm) in acetone and purified water (50/50 mix) containing 250 ppm of the surfactant Trem® 014 (polyhydric alcohol esters). The resulting test suspensions were then used in Tests A-F. Each test was conducted in triplicate, and the results were averaged. Spraying a 200 ppm test suspension to the point of run-off on the test plants was the equivalent of a rate of 800 g/ha. The test suspension was sprayed to the point of run-off on tomato seedlings. The following day the seedlings were inoculated with a spore suspension of Botrytis cinerea (the causal agent of tomato botrytis) and incubated in saturated atmosphere at 20° C. for 48 h, and then moved to a growth chamber at 24° C. for 3 days, after which time visual disease ratings were made. Results for Tests A-F are given in Table A. In the Table, a rating of 100 indicates 100% disease control and a rating of 0 indicates no disease control (relative to the controls). A dash (-) indicates no test results.

[2] = test system: Blumeria graminis f. sp. tritici; assay: Test F: wheat powdery mildew, test suspension sprayed on wheat seedlings the day before inoculation; details: sprayed to run-off, inoculated with spore dust following day, visual rating after 8 days at 20° C., 100 = 100% disease control, triplicate averaged
Procedure: as §2, with “on wheat” for “on tomato”, “spore dust” for “spore suspension”, “of Blumeria graminis f. sp. tritici (also known as Erysiphe graminis f. sp. tritici, the” for “of Botrytis cinerea (the”, “of wheat powdery mildew)” for “of tomato botrytis)”, “in a growth chamber” for “in saturated atmosphere”, “for 8” for “for 48 h, and then moved to a growth chamber at 24° C. for 3”

[3] = test system: Puccinia recondita f. sp. tritici; assay: Test E2: wheat leaf rust, test suspension sprayed on wheat seedlings the day before inoculation; details: sprayed to run-off, inoculated following day, visual rating after 24 h + 6 days at 20° C., 100 = 100% disease control, triplicate averaged
Procedure: as §1, with “The test suspension was sprayed to the point of run-off on wheat seedlings. The following day the” for “Wheat”, “6” for “2 days. At the end of this time the test suspension was sprayed to the point of run-off on the wheat seedlings, and then the seedlings were moved to a growth chamber at 20° C. for 4”

Septoria nodorum = assay: Test C: wheat glume blotch, test suspension sprayed on wheat seedlings the day before inoculation; details: sprayed to run-off, inoculated following day, visual rating after 48 h at 24° C. + 9 days at 20° C., 100 = 100% disease control, triplicate averaged
Procedure: (§3) General protocol for preparing test suspensions for Tests A-F: the test compounds were first dissolved in acetone in an amount equal to 3% of the final volume and then suspended at the desired concentration (in ppm) in acetone and purified water (50/50 mix) containing 250 ppm of the surfactant Trem® 014 (polyhydric alcohol esters). The resulting test suspensions were then used in Tests A-F. Each test was conducted in triplicate, and the results were averaged. Spraying a 200 ppm test suspension to the point of run-off on the test plants was the equivalent of a rate of 800 g/ha. The test suspension was sprayed to the point of run-off on wheat seedlings. The following day the seedlings were inoculated with a spore suspension of Septoria nodorum (the causal agent of wheat glume blotch) and incubated in a saturated atmosphere at 24° C. for 48 h, and then moved to a growth chamber at 20° C. for 9 days, after which time visual disease ratings were made. Results for Tests A-F are given in Table A. In the Table, a rating of 100 indicates 100% disease control and a rating of 0 indicates no disease control (relative to the controls). A dash (-) indicates no test results.

Septoria tritici = assay: Test D: wheat leaf blotch, test suspension sprayed on wheat seedlings the day before inoculation; details: sprayed to run-off, inoculated following day, visual rating after 48 h at 24° C. + 19 days at 20° C., 100 = 100% disease control, triplicate averaged
Procedure: as §3, with “of Septoria tritici (the causal” for “of Septoria nodorum (the causal”, “of wheat leaf blotch) and” for “of wheat glume blotch) and”, “incubated in saturated atmosphere” for “incubated in a saturated atmosphere”, “and then the seedlings were moved to” for “and then moved to”, “C. for 19 additional days, after” for “C. for 9 days, after”

Alternaria solani = assay: Test B: tomato early blight, test suspension sprayed on tomato seedlings the day before inoculation; details: sprayed to run-off, inoculated following day, visual rating after 48 h at 27° C. + 5 days at 20° C., 100 = 100% disease control, triplicate averaged
Procedure: General protocol for preparing test suspensions for Tests A-F: the test compounds were first dissolved in acetone in an amount equal to 3% of the final volume and then suspended at the desired concentration (in ppm) in acetone and purified water (50/50 mix) containing 250 ppm of the surfactant Trem® 014 (polyhydric alcohol esters). The resulting test suspensions were then used in Tests A-F. Each test was conducted in triplicate, and the results were averaged. Spraying a 200 ppm test suspension to the point of run-off on the test plants was the equivalent of a rate of 800 g/ha. The test suspension was sprayed to the point of run-off on tomato seedlings. The following day the seedlings were inoculated with a spore suspension of Alternaria solani (the causal agent of tomato early blight) and incubated in a saturated atmosphere at 27° C. for 48 h, and then moved to a growth chamber at 20° C. for 5 days, after which time visual disease ratings were made. Results for Tests A-F are given in Table A. In the Table, a rating of 100 indicates 100% disease control and a rating of 0 indicates no disease control (relative to the controls). A dash (-) indicates no test results.

SMILES	Test E1 disease control rating [1]	Test A disease control rating (Botrytis cinerea)	Test F disease control rating [2]	Test E2 disease control rating [3]	Test C disease control rating (Septoria nodorum)	Test D disease control rating (Septoria tritici)	Test B disease control rating (Alternaria solani)
Cc1nn(C)c(C(Cl)c2ccc(F)cc2F)c1-c1ccc(F)cc1Cl (centres unmarked) [Compound 2, 5-[Chloro(2,4-difluorophenyl)methyl]-4-(2-chloro-4-fluorophenyl)-1,3-dimethyl-1H-pyrazole]	0%	99%	0%	94%	0%	100%	0%
Cc1nn(C)c(C(Cl)c2ccc(F)cc2Cl)c1-c1c(F)cccc1Cl (centres unmarked) [Compound 7]			100%	100%		100%	
Cc1nn(C)c(C(Cl)c2ccc(F)cc2F)c1-c1c(F)cccc1F (centres unmarked) [Compound 5]	9%	100%	100%	100%	89%	100%	100%
COc1cc(F)c(C(F)c2c(-c3c(F)cccc3F)c(C)nn2C)c(F)c1 (centres unmarked) [Compound 3]	98%	100%	99%	100%	0%	100%	46%
Cc1nn(C)c(C(F)c2ccc(F)cc2F)c1-c1c(F)cccc1F (centres unmarked) [Compound 4]	66%	99%	0%	18%	0%	52%	98%
Cc1nn(C)c(C(F)c2ccc(F)cc2Cl)c1-c1c(F)cccc1Cl (centres unmarked) [Compound 6]			87%	98%		96%	
Cc1nn(C)c(C(F)c2ccc(F)cc2F)c1-c1ccc(F)cc1Cl (centres unmarked) [Compound 1, 4-(2-Chloro-4-fluorophenyl)-5-[(2,4-difluorophenyl)fluoromethyl]-1,3-dimethyl-1H-pyrazole]	40%	100%	69%	99%	0%	98%	83%
